Laboratory results reported in patent publication US20170304450A1, “PARENTERAL COMPOSITIONS AND USES THEREOF” (CEVA SANTE ANIMALE, priority 2014, published 2017).
Like-named read-outs stand apart in the source and are kept apart here.

What was measured:
[1] = Tests of equivalence of bioavailability: plasma pharmacokinetic parameters after subcutaneous injection; format: in vivo, bovines; details: both sexes, bovine (cattle), sc
Method: 24 young male and female bovines aged 11 months and with an average weight of 220 kg are treated individually with 1 subcutaneous injection of 40 mg/kg of florfenicol (Nuflor 450®—Merck, 450 mg of florfenicol/mL). Blood samples are taken regularly during the 7 days following this injection. This is followed by a wash-out period of 20 days. The animals then receive a subcutaneous injection of 0.5 mg/kg meloxicam (Metacam®, Boehringer Ingelheim, 5 mg of meloxicam/mL). Blood samples are taken regularly during the 7 days following this injection. This is followed by a new wash-out period of 20 days. […] Blood samples are taken regularly during the 7 days following this injection. The blood samples obtained during this treatment campaign make it possible to evaluate the pharmacokinetic parameters (Cmax and AUC0-t) and a pharmacological parameter (useful life of the antibiotic) by conventional methods known by a person skilled in the art.

[2] = test system: Pasteurella multocida; details: Pasteurella multocida reference strain; cited from earlier work
[3] = test system: Pasteurella multocida; experiment: Useful life of the antibiotic (time plasma concentration is above MIC90); format: in vivo; details: time plasma florfenicol is above MIC90 0.5 μg/mL for Pasteurella multocida; bovines, subcutaneous
Method: (§1) Blood samples are taken regularly during the 7 days following this injection. This is followed by a wash-out period of 20 days. The animals then receive a subcutaneous injection of 0.5 mg/kg meloxicam (Metacam®, Boehringer Ingelheim, 5 mg of meloxicam/mL). Blood samples are taken regularly during the 7 days following this injection. This is followed by a new wash-out period of 20 days. […] Blood samples are taken regularly during the 7 days following this injection. […] The useful life of an antibiotic is the time (in hours) during which the plasma concentration of a given antibiotic is above its MIC90 for the 3 representative microbes Mannheimia haemolytica, Histophilus somni, Pasteurella multocida.

[4] = test system: Mannheimia haemolytica; experiment: as above; format: in vivo; details: time plasma florfenicol is above MIC90 1 μg/mL for Mannheimia haemolytica; bovines, subcutaneous
Method: as §1

[5] = test system: Histophilus somni; experiment: as above; format: in vivo; details: time plasma florfenicol is above MIC90 0.2 μg/mL for Histophilus somni; bovines, subcutaneous
Method: as §1

[6] = test system: Histophilus somni; details: Histophilus somni reference strain; cited from earlier work
[7] = test system: Mannheimia haemolytica; details: Mannheimia haemolytica reference strain; cited from earlier work

For `CS(=O)(=O)c1ccc([C@@H](O)[C@@H](CF)NC(=O)C(Cl)Cl)cc1` [Florfenicol, florfenicol], the AUC(0-t) ([1]; in vivo, 40 mg/kg) is given as 196 ± 45 µg·h/mL, the Cmax ([1]; in vivo, 40 mg/kg) is given as 3500 ± 1040 ng/mL and the “reference MIC90” value [2] is given as 0.5 µg/mL. It also gave a Calculated antibiotic life [3] of 132.03 ± 27.22 h, a Calculated antibiotic life [4] of 66.44 ± 20.65 h and a Calculated antibiotic life [5] of 167.78 ± 0.13 h. The “reference MIC90” value [6] was 0.2 µg/mL and the “reference MIC90” value [7] was 1 µg/mL.
With `Cc1cnc(NC(=O)C2=C(O)c3ccccc3S(=O)(=O)N2C)s1` [Meloxicam, meloxicam] the AUC(0-t) ([1]; plasma, 0.5 mg/kg, read-out: AUC0-t of meloxicam in plasma) was 40.6 ± 7.12 µg·h/mL and the Cmax ([1]; plasma, 0.5 mg/kg, read-out: Cmax of meloxicam in plasma) was 2240 ± 357 ng/mL.
